In US11078193B2 (priority 2014, dated 2021):

How the values were obtained:
[1] = ATP based toxicity assay (ATPlite), HepG2 cell line; details: human, HepG2 cells, ATPlite (ATP levels)
Protocol: Alternatively, cytotoxicity was determined via an ATP-assay: The ATPlite kit from Perkin Elmer was used to assess compound cytotoxicity on the HepG2 cell line by determination of the ATP (adenosine triphosphate) levels. ATP is a marker for functional integrity and cell viability, because it is present in all metabolically active cells and any form of cell injury will result in a rapid decline in cellular ATP concentration. After compound incubation, 1 volume of ATPlite solution was added to the cells and the luminescence signal was measured.

HBV [2] = experiment: anti HBV activity, HepG2.117 inducibly HBV producing cell line (Tet-off), intracellular HBV DNA by realtime PCR; assay type: cell-based; details: Hepatitis B virus, 72 h, HepG2.117 cells, 3 days of treatment
[3] = Cytotoxicity, HepG2 cells, Resazurin assay; assay type: cell-based; details: human
HBV [4] = experiment: anti-HBV activity, HepG2.2.15 stable transfected cell line, HBV DNA from secreted virions by realtime PCR; assay type: cell-based; details: Hepatitis B virus, 144 h, HepG2.2.15 cells, 6 days of treatment

SMILES	CC50 at 4 days [1]	EC50 (HBV [2])	CC50 at 4 days [3]	EC50 (HBV [4])
C[C@@H](NS(=O)(=O)c1cn(C)c(C(=O)Nc2cc(F)nc(Br)c2)c1F)C(F)(F)F [Compound 216, N-(2-bromo-6-fluoro-4-pyridyl)-3-fluoro-1-methyl-[[(1R)-2,2,2-trifluoro-1-methyl-ethyl]sulfamoyl]pyrrole-2-carboxamide]	> 25000 nM	10 nM		
Cc1c(S(=O)(=O)N[C@H](C)C(F)(F)F)c(F)c(C(=O)Nc2ccnc(C(F)F)c2)n1C [Compound 206, N-[2-(difluoromethyl)-4-pyridyl]-3-fluoro-1,5-dimethyl-4-[[(1R)-2,2,2-trifluoro-1-methyl-ethyl]sulfamoyl]pyrrole-2-carboxamide]	> 25000 nM	20 nM		
C[C@@H](NS(=O)(=O)c1cn(C)c(C(=O)Nc2ccnc(CF)c2)c1Cl)C(F)(F)F [Compound 145, 3-chloro-N-[2-(fluoromethyl)-4-pyridyl]-1-methyl-4-[[(1R)-2,2,2-trifluoro-1-methyl-ethyl]sulfamoyl]pyrrole-2-carboxamide]	> 25000 nM	80 nM		
C[C@@H](NS(=O)(=O)c1cn(C)c(C(=O)Nc2ccnc(C(F)F)c2F)c1F)C(C)(F)F [Compound 204, N-[2-(difluoromethyl)-3-fluoro-4-pyridyl]-4-[[(1R)-2,2-difluoro-1-methyl-propyl]sulfamoyl]-3-fluoro-1-methyl-pyrrole-2-carboxamide]	> 25000 nM	10 nM		
Cc1c(S(=O)(=O)N[C@H](C)C(F)(F)F)c(F)c(C(=O)Nc2ccnc(Br)c2)n1C [Compound 205, N-(2-bromo-4-pyridyl)-3-fluoro-1,5-dimethyl-[[(1R)-2,2,2-trifluoro-1-methyl-ethyl]sulfamoyl]pyrrole-2-carboxamide]	> 25000 nM	20 nM		
Cn1cc(S(=O)(=O)NC2(C(F)(F)F)COC2)c(F)c1C(=O)Nc1cc(F)nc(F)c1 [Compound 211]	> 25000 nM	50 nM		
Cn1cc(S(=O)(=O)NC2(C(F)(F)F)CC2)c(F)c1C(=O)Nc1ccnc(C(F)F)c1F [Compound 195, N-[2-(difluoromethyl)-3-fluoro-4-pyridyl]-3-fluoro-1-methyl-4-[[1-(trifluoromethyl)cyclopropyl]sulfamoyl]pyrrole-2-carboxamide]	> 25000 nM	20 nM		
Cn1cc(S(=O)(=O)NC2(C(F)(F)F)CC2)c(F)c1C(=O)Nc1ccnc(C(F)F)c1 [Compound 196, N-[2-(difluoromethyl)-4-pyridyl]-3-fluoro-1-methyl-4-[[1-(trifluoromethyl)cyclopropyl]sulfamoyl]pyrrole-2-carboxamide]	> 25000 nM	20 nM		
Cn1cc(S(=O)(=O)NC(C)(C)C(F)(F)F)c(F)c1C(=O)Nc1ccnc(C(F)F)c1 [Compound 190, N-[2-(difluoromethyl)-4-pyridyl]-3-fluoro-1-methyl-4-[(2,2,2-trifluoro-1,1-dimethyl-ethyl)sulfamoyl]pyrrole-2-carboxamide]	> 25000 nM	50 nM		
C[C@@H](NS(=O)(=O)c1cn(C)c(C(=O)Nc2ccnc(C(F)F)c2F)c1F)C(F)(F)F [Compound 202, N-[2-(difluoromethyl)-3-fluoro-4-pyridyl]-3-fluoro-1-methyl-4-[[(1R)-2,2,2-trifluoro-1-methyl-ethyl]sulfamoyl]pyrrole-2-carboxamide]	> 25000 nM	8 nM		
Cn1cc(S(=O)(=O)NC2(C(F)(F)F)CC2)c(F)c1C(=O)Nc1ccnc(Br)c1 [Compound 194, N-(2-bromo-4-pyridyl)-3-fluoro-1-methyl-4-[[1-(trifluoromethyl)cyclopropyl]sulfamoyl]pyrrole-2-carboxamide]	> 25000 nM	20 nM		
Cc1nc(NC(=O)c2c(F)c(S(=O)(=O)N[C@H](C)C(F)(F)F)cn2C)ccc1F [Compound 214, 3-fluoro-N-(5-fluoro-6-methyl-2-pyridyl)-1-methyl-4-[[(1R)-2,2,2-trifluoro-1-methyl-ethyl]sulfamoyl]pyrrole-2-carboxamide]	> 25000 nM	80 nM		
Cn1cc(S(=O)(=O)NC2(C)CC(F)(F)C2)c(F)c1C(=O)Nc1cc(Cl)nc(Cl)c1 [Compound 136, N-(2,6-dichloro-4-pyridyl)-4-[(3,3-difluoro-1-methyl-cyclobutyl)sulfamoyl]-3-fluoro-1-methyl-pyrrole-2-carboxamide]	9500 nM	20 nM		
Cn1cc(S(=O)(=O)NC2(C(F)(F)F)COC2)c(F)c1C(=O)Nc1ccnc(C(F)F)c1 [Compound 210]	> 25000 nM	70 nM		
Cn1cc(S(=O)(=O)NC(C)(C)C(F)(F)F)c(F)c1C(=O)Nc1ccnc(Br)c1 [Compound 191, N-(2-bromo-4-pyridyl)-3-fluoro-1-methyl-4-[(2,2,2-trifluoro-1,1-dimethyl-ethyl)sulfamoyl]pyrrole-2-carboxamide]	> 25000 nM	60 nM		
CC[C@H](NS(=O)(=O)c1cn(C)c(C(=O)Nc2ccnc(C#N)c2)c1Cl)C(F)(F)F [Compound 37, 3-chloro-N-(2-cyano-4-pyridyl)-1-methyl-4-[[(1S)-1-(trifluoromethyl)-propyl]sulfamoyl]pyrrole-2-carboxamide]		200 nM	> 25000 nM	150 nM
C[C@@H](NS(=O)(=O)c1cn(C)c(C(=O)Nc2ccnc(Cl)c2F)c1F)C(C)(F)F [Compound 125, N-(2-chloro-3-fluoro-4-pyridyl)-4-[[(1R)-2,2-difluoro-1-methyl-propyl]sulfamoyl]-3-fluoro-1-methyl-pyrrole-2-carboxamide]		8 nM	> 25000 nM	< 100 nM
Cn1cc(S(=O)(=O)NC2(C)CC(F)(F)C2)c(Cl)c1C(=O)Nc1ccnc(C#N)c1 [Compound 64, 3-chloro-N-(2-cyano-4-pyridyl)-4-[(3,3-difluoro-1-methyl-cyclobutyl)-sulfamoyl]-1-methyl-pyrrole-2-carboxamide]		30 nM	23000 nM	20 nM
CC[C@@H](NS(=O)(=O)c1cn(C)c(C(=O)Nc2ccnc(C#N)c2)c1F)C(F)(F)F [Compound 31, N-(2-cyano-4-pyridyl)-3-fluoro-1-methyl-4-[[(1R)-1-(trifluoromethyl)propyl]-sulfamoyl]pyrrole-2-carboxamide]		40 nM	> 25000 nM	30 nM
Cn1cc(S(=O)(=O)NC2(C)CC(F)(F)C2)c(Cl)c1C(=O)Nc1ccnc(F)c1 [Compound 116, 3-chloro-4-[(3,3-difluoro-1-methyl-cyclobutyl)sulfamoyl]-N-(2-fluoro-4-pyridyl)-1-methyl-pyrrole-2-carboxamide]		20 nM	> 25000 nM	210 nM
C[C@H](NS(=O)(=O)c1cn(C)c(C(=O)Nc2ccnc(C#N)c2)c1F)C(F)(F)F [Compound 19, N-(2-Cyanopyridin-4-yl)-3-fluoro-1-methyl-4-{[(1S)-2,2,2-trifluoro-1-methylethyl]sulfamoyl}-1H-pyrrole-2-carboxamide]		100 nM	> 25000 nM	160 nM
C[C@@H](NS(=O)(=O)c1cn(C)c(C(=O)Nc2cccc(C(F)(F)F)n2)c1F)C(F)(F)F [Compound 26, 3-fluoro-1-methyl-4-[[(1R)-2,2,2-trifluoro-1-methyl-ethyl]sulfamoyl]-N-[6-(trifluoromethyl)-2-pyridyl]pyrrole-2-carboxamide]		> 1000 nM	> 25000 nM	110 nM
C[C@@H](NS(=O)(=O)c1cn(C)c(C(=O)Nc2cccc(C#N)n2)c1Cl)C(F)(F)F [Compound 22, 3-chloro-N-(6-cyano-2-pyridyl)-1-methyl-[[(1R)-2,2,2-trifluoro-1-methyl-ethyl]sulfamoyl]pyrrole-2-carboxamide]		720 nM	> 25000 nM	440 nM
C[C@@H](NS(=O)(=O)c1cn(C)c(C(=O)Nc2cnc(F)c(Br)c2)c1F)C(F)(F)F [Compound 29, N-(5-bromo-6-fluoro-3-pyridyl)-3-fluoro-1-methyl-4-[[(1R)-2,2,2-trifluoro-1-methyl-ethyl]sulfamoyl]pyrrole-2-carboxamide]		60 nM	> 25000 nM	40 nM
Cn1cc(S(=O)(=O)NC2(C)COC2)cc1C(=O)Nc1cccc(C(F)(F)F)n1 [Compound 5, 1-Methyl-4-[(3-methyloxetan-3-yl)sulfamoyl]-N-[6-(trifluoromethyl)pyridin-2-yl]-1H-pyrrole-2-carboxamide]		3110 nM	> 25000 nM	920 nM
C[C@@H](NS(=O)(=O)c1cn(C)c(C(=O)Nc2ccnc(C(F)(F)F)c2)c1F)C(F)(F)F [Compound 21, 3-fluoro-1-methyl-[[(1R)-2,2,2-trifluoro-1-methyl-ethyl]sulfamoyl]-N-[2-(trifluoromethyl)-4-pyridyl]pyrrole-2-carboxamide]		30 nM	> 25000 nM	40 nM
CC[C@H](NS(=O)(=O)c1cc(C(=O)Nc2ccnc(Cl)c2)n(C)c1)C(F)(F)F [Compound 47, N-(2-chloro-4-pyridyl)-1-methyl-4-[[(1S)-1-(trifluoromethyl)propyl]-sulfamoyl]pyrrole-2-carboxamide]		40 nM	> 25000 nM	60 nM
C[C@@H](NS(=O)(=O)c1cn(C)c(C(=O)Nc2cnc(F)c(Br)c2)c1Cl)C(F)(F)F [Compound 34, N-(5-bromo-6-fluoro-3-pyridyl)-3-chloro-1-methyl-4-[[(1R)-2,2,2-trifluoro-1-methyl-ethyl]sulfamoyl]pyrrole-2-carboxamide]		100 nM	> 25000 nM	50 nM
